Experimental data published in the supplement of paper PMC7661543.
± gives the standard deviation of the averaged measurements.

Tests used:
Test in all cases: relative cell number vs DMSO control (72 h) (% of DMSO); higher = less growth inhibition (more cells)
Conditions in all cases: sgRNA knockout: sgNT
HCC-38 = test system: HCC-38
Protocol: (§1)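 QMAP-Seq: a pool of 5 breast cancer cell lines (ZR-75-1, SKBR3, HCC-38, MDA-MB-231, BT-20), each carrying 12 doxycycline-inducible Cas9 sgRNA perturbations (11 knockouts plus non-targeting sgNT), was treated with compounds for 72 h at four 10-fold doses (10 nM-10 uM or 1 nM-1 uM range). Barcodes were amplified and sequenced, and cell number was interpolated from 293T spike-in standard curves. The result is expressed as % of the median of DMSO wells. Two biological replicates.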

MDA-MB-231 = test system: MDA-MB-231
Protocol: as §1

ZR-75-1 = test system: ZR-75-1
Protocol: as §1

BT-20 = test system: BT-20
Protocol: as §1

SKBR3 = test system: SKBR3
Protocol: as §1

| SMILES | relative cell number (HCC-38; 10 nM) | relative cell number (HCC-38; 100 nM) | relative cell number (HCC-38; 1000 nM) | relative cell number (HCC-38; 10000 nM) | relative cell number (MDA-MB-231; 10 nM) | relative cell number (MDA-MB-231; 100 nM) | relative cell number (MDA-MB-231; 1000 nM) | relative cell number (MDA-MB-231; 10000 nM) | relative cell number (ZR-75-1; 10 nM) | relative cell number (ZR-75-1; 100 nM) | relative cell number (ZR-75-1; 1000 nM) | relative cell number (ZR-75-1; 10000 nM) | relative cell number (BT-20; 10 nM) | relative cell number (BT-20; 100 nM) | relative cell number (BT-20; 1000 nM) | relative cell number (BT-20; 10000 nM) | relative cell number (SKBR3; 10 nM) | relative cell number (SKBR3; 100 nM) | relative cell number (SKBR3; 1000 nM) | relative cell number (SKBR3; 10000 nM) | relative cell number (HCC-38; 1 nM) | relative cell number (MDA-MB-231; 1 nM) | relative cell number (ZR-75-1; 1 nM) | relative cell number (BT-20; 1 nM) | relative cell number (SKBR3; 1 nM) |
| --- | --- | --- | --- | --- | --- | --- | --- | --- | --- | --- | --- | --- | --- | --- | --- | --- | --- | --- | --- | --- | --- | --- | --- | --- | --- |
| Cc1cc(C2CCCCC2)n(O)c(=O)c1 [Ciclopirox] | 88.3 ± 8.2 | 93.6 ± 11 | 77.4 ± 3.9 | 13.6 ± 2.9 | 112 ± 16 | 125 ± 41 | 49.1 ± 5.4 | 20.4 ± 5.6 | 112 ± 34 | 93.9 ± 19 | 41.4 ± 1.6 | 18.3 ± 1.6 | 96.4 ± 11 | 95.2 ± 19 | 65.7 ± 2.8 | 25.2 ± 7.7 | 105 ± 24 | 83.3 ± 22 | 86.9 ± 17 | 17.3 ± 9.5 | – | – | – | – | – |
| CN(C)C(=O)c1ccc(S(=O)(=O)c2ccc(NC(=O)[C@@](C)(O)C(F)(F)F)c(Cl)c2)cc1 [AZD7545] | 105 ± 6.3 | 90 ± 14 | 97.8 ± 1.1 | 82.9 ± 1.9 | 103 ± 17 | 121 ± 14 | 104 ± 39 | 89.5 ± 47 | 110 ± 7.3 | 116 ± 53 | 91.8 ± 25 | 42.7 ± 5.5 | 91.2 ± 24 | 103 ± 25 | 102 ± 22 | 95.7 ± 8.7 | 97.6 ± 9.6 | 103 ± 18 | 95.8 ± 11 | 70.3 ± 10 | – | – | – | – | – |
| C=CC(=O)Nc1cc2c(Nc3ccc(F)c(Cl)c3)ncnc2cc1OCCCN1CCOCC1 [Canertinib] | 97 ± 19 | 110 ± 9.9 | 87 ± 12 | 9.97 ± 5 | 87.7 ± 26 | 60.8 ± 6.4 | 78.7 ± 21 | 9.74 ± 5.8 | 117 ± 23 | 113 ± 22 | 63.6 ± 13 | 41.2 ± 9.9 | 69.3 ± 4.2 | 59.3 ± 7.5 | 75.3 ± 11 | 41.5 ± 21 | 81.6 ± 12 | 56.6 ± 18 | 39.1 ± 14 | 16.3 ± 0.86 | – | – | – | – | – |
| CC(C)c1cc(-c2n[nH]c(=O)n2-c2ccc3c(ccn3C)c2)c(O)cc1O [Ganetespib] | 94.7 ± 2.2 | 26.6 ± 1.2 | 18.5 ± 2.5 | – | 88.7 ± 21 | 13.7 ± 1.3 | 11.4 ± 7.9 | – | 83.6 ± 40 | 18 ± 1.4 | 27.2 ± 3.3 | – | 89.9 ± 2.6 | 44.8 ± 0.61 | 48.5 ± 11 | – | 75.4 ± 13 | 24.1 ± 5.2 | 30.5 ± 9.4 | – | 91 ± 2.5 | 88.2 ± 21 | 96.883 ± 0.01 | 96.6 ± 15 | 73.1 ± 28 |
| Cc1c(Cn2c(C)nc3c(C(=O)O)cc(N4CCOCC4)cc32)cccc1C(F)(F)F | 115 ± 17 | 85.5 ± 2.4 | 108 ± 19 | 102 ± 10 | 105 ± 4.5 | 123 ± 22 | 93.9 ± 27 | 112 ± 23 | 126 ± 2.5 | 98.6 ± 13 | 72.1 ± 7 | 108 ± 53 | 100 ± 7.3 | 117 ± 23 | 87 ± 10 | 82.1 ± 1.1 | 137 ± 8 | 123 ± 22 | 98.4 ± 25 | 99.1 ± 8.4 | – | – | – | – | – |
| CC[C@]1(O)C[C@H]2CN(CCc3c([nH]c4ccccc34)[C@@](C(=O)OC)(c3cc4c(cc3OC)N(C=O)[C@H]3[C@@](O)(C(=O)OC)[C@H](OC(C)=O)[C@]5(CC)C=CCN6CC[C@]43[C@@H]65)C2)C1 [Vincristine] | 23.2 ± 4 | 22.5 ± 2.4 | 21.8 ± 2.9 | 21.1 ± 1.5 | 30.7 ± 3.3 | 14.4 ± 2.7 | 9.81 ± 3.5 | 8.55 ± 3.1 | 36.6 ± 5.9 | 22.3 ± 1.7 | 9.69 ± 0.85 | 17.1 ± 4.5 | 34.7 ± 4.6 | 22.5 ± 6.4 | 28.17 ± 0.087 | 34.5 ± 1.1 | 5.25 ± 0.24 | 3.5 ± 2.5 | 8.88 ± 0.92 | 6.97 ± 4.4 | – | – | – | – | – |
| COCC[n+]1c2c(n(Cc3cnccn3)c1C)C(=O)c1ccccc1C2=O [YM155] | 20.2 ± 2 | 4.12 ± 0.77 | 5.13 ± 0.38 | – | 27.1 ± 0.85 | 6.58 ± 1.3 | 4.86 ± 1.3 | – | 23.9 ± 13 | 6.08 ± 4.9 | 3.11 ± 2.6 | – | 41.8 ± 5 | 4.66 ± 1.7 | 5.07 ± 2.5 | – | 62.2 ± 7.2 | 6.9 ± 0.62 | 4.71 ± 4.5 | – | 54.7 ± 3.2 | 75.1 ± 3.9 | 87.2 ± 46 | 88.6 ± 16 | 79.4 ± 20 |
| N#Cc1ccc(C(c2ccc(C#N)cc2)n2cncn2)cc1 [Letrozole] | 107 ± 13 | 111 ± 12 | 95 ± 12 | – | 109 ± 10 | 77.2 ± 7.3 | 106 ± 11 | – | 93.6 ± 24 | 106 ± 30 | 60.6 ± 7.9 | – | 89.6 ± 27 | 95.8 ± 6.8 | 104 ± 16 | – | 97.5 ± 23 | 110 ± 22 | 121.06 ± 0.081 | – | 94.5 ± 6.1 | 84.7 ± 9.7 | 109 ± 14 | 83 ± 35 | 87.5 ± 18 |
| C=C(c1ccc(C(=O)O)cc1)c1cc2c(cc1C)C(C)(C)CCC2(C)C [Bexarotene] | 85.51 ± 0.16 | 90.4 ± 9 | 94.9 ± 8 | 108 ± 8.4 | 146 ± 83 | 73.6 ± 3.8 | 95.3 ± 16 | 80.2 ± 31 | 97.6 ± 34 | 78.4 ± 27 | 72.2 ± 19 | 70.3 ± 5.1 | 122 ± 11 | 119 ± 25 | 112 ± 33 | 137 ± 30 | 107 ± 4.7 | 72.8 ± 16 | 71.6 ± 34 | 90 ± 11 | – | – | – | – | – |
| Cc1cc2c(C(C)C)c(O)c(O)c(C=O)c2c(O)c1-c1c(C)cc2c(C(C)C)c(O)c(O)c(C=O)c2c1O [Gossypol] | 96.4 ± 16 | 91.6 ± 12 | 107.2 ± 0.47 | 27 ± 1.4 | 125 ± 38 | 87.2 ± 6.4 | 103 ± 33 | 22.7 ± 7.3 | 129 ± 19 | 96 ± 13 | 106 ± 54 | 26.9 ± 14 | 96.2 ± 1.7 | 80.1 ± 8.4 | 113 ± 39 | 44.9 ± 2 | 101.3 ± 0.15 | 94.3 ± 8.1 | 103 ± 7.4 | 24.6 ± 2.8 | – | – | – | – | – |
| CC(=O)O[C@H]1C(=O)[C@@]2(C)[C@H]([C@H](OC(=O)c3ccccc3)[C@]3(O)C[C@H](OC(=O)[C@H](O)[C@@H](NC(=O)c4ccccc4)c4ccccc4)C(C)=C1C3(C)C)[C@]1(OC(C)=O)CO[C@@H]1C[C@@H]2O [Paclitaxel] | 31.4 ± 5.5 | 14.4 ± 5.1 | 18 ± 2.9 | 25.4 ± 3.6 | 28.8 ± 15 | 15.6 ± 2.2 | 21.4 ± 7.8 | 29.9 ± 10 | 28.3 ± 2 | 18.6 ± 18 | 21.6 ± 3.9 | 43.8 ± 17 | 57.9 ± 10 | 18.7 ± 15 | 25.7 ± 9.2 | 47.3 ± 15 | 10.2 ± 2.9 | 6.23 ± 1.4 | 11.1 ± 1.4 | 16.4 ± 9.7 | – | – | – | – | – |
| COc1cccc2c1C(=O)c1c(O)c3c(c(O)c1C2=O)C[C@@](O)(C(=O)CO)C[C@@H]3O[C@H]1C[C@H](N)[C@H](O)[C@H](C)O1 [Doxorubicin] | 74 ± 5.4 | 38.3 ± 2.5 | 17.2 ± 3.1 | 10.8 ± 3.9 | 75.6 ± 18 | 19.3 ± 8.7 | 20.3 ± 0.47 | 7.68 ± 2.6 | 50 ± 9.8 | 31.7 ± 2.4 | 22.2 ± 16 | 10 ± 4.1 | 83 ± 11 | 46 ± 1.4 | 29.9 ± 5.7 | 16.4 ± 4.5 | 82.6 ± 29 | 34.4 ± 8.3 | 15 ± 6.8 | 6.86 ± 0.49 | – | – | – | – | – |
